Measured values reported in patent publication US20030186423A1, “Amidase from variovorax” (Degussa AG, priority 2001, published 2003).

Key:
Format in all cases: biochemical, Variovorax paradoxus
D-amidase [1] = assay: Kinetic cleavage of racemic amino acid amides: enantioselectivity as a function of the conversion
Procedure: To evaluate the suitability for kinetic cleavage of racemic DL-Tle-NH2, the enantioselectivity was determined as a function of the conversion.
DL-Valin-, DL-leucin- and DL-phenylalaninamide were alos tested in this respect. For this, the enantioselectivity was determined as function of the conversion with partly purified enzyme from Variovorax paradoxus 19-3 after the 1st chromatography step.
(§1) The separation and quantitative determination of the enantiomers D- and L-tert-leucine were carried out by a “chiral derivatization” on the basis of o-phthaldialdehyde (OPA)/N-isobutyryl-L-cysteine or N-isobutyryl-D-cysteine (Brückner, H.; Wittner R. and Godel H. (1991), Fully automated high-performance liquid chromatographic separation of DL-amino acids derivatized with o-Phthaldialdehyde together with N-isopropyl-cysteine. Application to food samples. Anal. Biochem. 144, 204-206). The diastereomeric isoindole derivatives formed were separated on an RP-18 (reversed phase) column and detected by fluorescence. A two-buffer system of aqueous acetate buffer and an acetonitrile/water mixture was used as the mobile phase.

D-amidase [2] = assay: Enzyme test for amino acid amides and α-hydroxycarboxylic acid amides (HPLC or NH4+ determination); settings: for Activity with respect to Tle-NH2 / Specific activity: substrate 40 mM; for Activity with respect to Tle-NH2: DL-Tle-NH2 = 1; for Specific activity: partly purified D-amidase after the 2nd chromatography step (0.56 U/mg), Pro-, Lac-, MHA-NH2 by NH4+ determination; for Rel. activity with respect to D and L: activity for the lower enantiomer set at 1
Procedure: For prolinamide, and the α-hydroxycarboxylic acid amides lactic acid amide (Lac-NH2) and 2-hydroxy-4-methylmercaptobutyric acid amid (MHA-NH2), the methionine-analogous α-hydroxycarboxylic acid amide, determination of the product with the previous HPLC analysis is not possible. For these substrates, the activity was determined with the aid of NH4^+ determination. […] All the substrates were employed in the enzyme test at 40 mM. In the 4th column, for further comparison the activity for the lower enantiomer has been set at 1 and a relative activity for the preferred enantiomer has been calculated therefrom.
(§2) In the conversion of tert-leucinamide (gen. acid amides) by the D-amidase, the formation of ammonia or ammonium ions and tert-leucine (gen. acid) in equimolar amounts occurs. […] The change in concentration of the components participating can be measured in an enzyme test, which comprises incubation of the following test batch for 10-60 minutes at 30° C.
(§3) The enzyme test was started by addition of the substrate and the reaction was stopped by heating at 95° C. for three minutes. The analysis of the reaction products was carried out for ammonium ions by enzymatic determination of ammonium by glutamate dehydrogenase (Bergmeyer, H.,U., and Beutler, H.-O. (1985) Ammonia. In: Methods of Enzymatic Analysis. VCH-Verlag, 3rd edition, vol. 8: 454-461, Weinheim) and for D- and L-tert-leucine by means of HPLC (Bruckner, H., Wittner R., and Godel H., (1991) Fully automated high-performance liquid chromatographic separation of DL-amino acids derivatized with o-phthaldialdehyde together with N-isopropyl-cysteine. Application to food samples. Anal. Biochem. 144(1): 204-206). Batches to which no substrate were added served as controls.
as §1

D-amidase [3] = assay: Enzyme test for acid amides, activity by determination of ammonium ions with glutamate dehydrogenase; settings: for Activity with respect to Tle-NH2: DL-Tle-NH2 = 1; for Relative act.: partly purified D-amidase after the 2nd chromatography step (0.51 U/mg)
Procedure: The activity was measured by determination of the ammonium ions with glutamate dehydrogenase (Bergmeyer, H. U., and Beutler, H.-O. (1985), Ammonia. In: Methods of Enzymatic Analysis. VCH-Verlag, 3rd edition, vol. 8: 454-461, Weinheim). […] The substrates were employed in the enzyme test at 40 mM, except for succinic acid diamide and adipic acid diamide, each at 10 mM, and benzylamide at 20 mM. Since the activities were determined only at in each case one substrate concentration, relative activities are stated.
as §2, §3
The enzyme glutamate dehydrogenase (GluDH; E.C.1.4.1.3) converts 2-oxoglutarate into L-glutamate, ammonium ions being consumed and NADH being oxidized to NAD+(Bergmeyer, H.,U. and Beutler, H.-O. (1985), Ammonia. In: Methods of Enzymatic Analysis. VCH-Verlag, 3rd edition, vol. 8: 454-461, Weinheim). The amount of NADH consumed during the reaction is equivalent to the amount of ammonium ions. The change in the concentration of NADH is the measurement parameter and can be determined spectrophotometrically at a wavelength of 340 nm.
The test components were pipetted into cells of plastic (1.5 ml semimicro disposable cells, Brand) and mixed and the extinction at 340 nm was determined after 5 min. 10 μl GluDH were then added, and after the reaction had gone to completion, as a rule after 30 min, the extinction was measured again.

[4] = conversion 4%, partly purified enzyme after the 1st chromatography step
[5] = conversion 51%, partly purified enzyme after the 1st chromatography step

In the case of `CC(C)C[C@H](N)C(N)=O` (racemic) [DL-Leu-NH2], the E value (D-amidase [1]; conversion 4%) is reported as 470, the “ee D-Val” value (D-amidase [1]; [4]) is reported as 99.6% and the E value (D-amidase [1]; conversion 18%) is reported as 130. For the same compound, the “ee D-Val” value (D-amidase [1]; conversion 18%, partly purified enzyme after the 1st chromatography step) was 98.1%, the E value (D-amidase [1]; conversion 33%) was 120 and the “ee D-Val” value (D-amidase [1]; conversion 33%, partly purified enzyme after the 1st chromatography step) was 97.3%. The E value (D-amidase [1]; conversion 40%) was 114, the “ee D-Val” value (D-amidase [1]; conversion 40%, partly purified enzyme after the 1st chromatography step) was 96.7% and the E value (D-amidase [1]; conversion 48%) was 53. For the same compound, the “ee D-Val” value (D-amidase [1]; conversion 48%, partly purified enzyme after the 1st chromatography step) was 90.8%, the E value (D-amidase [1]; conversion 51%) was 41 and the “ee D-Val” value (D-amidase [1]; [5]) was 86.7%.
With `CSCCC(O)C(N)=O` (racemic) [DL-MHA-NH2, 2-hydroxy-4-methylmercaptobutyric acid amid] the “Activity with respect to Tle-NH2” value (D-amidase [2]) was 150 and the Specific activity (D-amidase [2]) was 82 U/mg.
For `CSCCC(N)C(N)=O` (racemic) [DL-Met-NH2], the “Rel. activity with respect to D and L” value (D-amidase [2]) was 2.7, the “Activity with respect to Tle-NH2” value (D-amidase [2]) was 230 and the Specific activity (D-amidase [2]) was 130 U/mg.
`NC(=O)C(N)Cc1ccccc1` (racemic) [DL-Phe-NH2, DL-phenylalaninamide] was tested, and the E value (D-amidase [1]; conversion 4%) was 5.6, the “ee D-Val” value (D-amidase [1]; [4]) was 68.8% and the E value (D-amidase [1]; conversion 14%) was 5.2. For the same compound, the “ee D-Val” value (D-amidase [1]; conversion 14%, partly purified enzyme after the 1st chromatography step) was 65.1%, the E value (D-amidase [1]; conversion 26%) was 5.1 and the “ee D-Val” value (D-amidase [1]; conversion 26%, partly purified enzyme after the 1st chromatography step) was 61.5%. For the same compound, the E value (D-amidase [1]; conversion 36%) was 5.2, the “ee D-Val” value (D-amidase [1]; conversion 36%, partly purified enzyme after the 1st chromatography step) was 58.3% and the E value (D-amidase [1]; conversion 51%) was 5.1. The “ee D-Val” value (D-amidase [1]; [5]) was 50.9% and the “E value (average)” value (D-amidase [1]; racemic amide, calculated from Table 3) was 5.
With `NC(=O)C(N)Cc1c[nH]c2ccccc12` (racemic) [DL-Trp-NH2] the “Rel. activity with respect to D and L” value (D-amidase [2]) was 2.5, the “Activity with respect to Tle-NH2” value (D-amidase [2]) was 160 and the Specific activity (D-amidase [2]) was 86 U/mg.
`CC(N)=O` [Acetamide] was tested, and the “Activity with respect to Tle-NH2” value (D-amidase [3]; substrate 40 mM) was 4.0 and the Relative act. (D-amidase [3]; substrate 40 mM) was 2.1 U/mg.
In the case of `CC(=O)CC(N)=O` [Acetoacetamide], the “Activity with respect to Tle-NH2” value (D-amidase [3]; substrate 40 mM) is reported as 130 and the Relative act. (D-amidase [3]; substrate 40 mM) is reported as 58 U/mg.
With `NC(=O)CCCCC(N)=O` [Adipic acid diamide] the “Activity with respect to Tle-NH2” value (D-amidase [3]; substrate 10 mM) was 14 and the Relative act. (D-amidase [3]; substrate 10 mM) was 7.0 U/mg.
For `CCCC(N)=O` [Butyramide], the “Activity with respect to Tle-NH2” value (D-amidase [3]; substrate 40 mM) was 37 and the Relative act. (D-amidase [3]; substrate 40 mM) was 17 U/mg.
For `C[C@@H](N)C(N)=O` [D-Ala-NH2], the “Rel. activity with respect to D and L” value (D-amidase [2]) was 3.0, the “Activity with respect to Tle-NH2” value (D-amidase [2]) was 44 and the Specific activity (D-amidase [2]) was 23 U/mg.
For `CC(O)C(N)=O` [D-Lac-NH2, lactic acid amide], the “Rel. activity with respect to D and L” value (D-amidase [2]) was 1, the “Activity with respect to Tle-NH2” value (D-amidase [2]) was 59 and the Specific activity (D-amidase [2]) was 29 U/mg.
`CC(C)C[C@@H](N)C(N)=O` [D-Leu-NH2] was tested, and the “Rel. activity with respect to D and L” value (D-amidase [2]) was 15, the “Activity with respect to Tle-NH2” value (D-amidase [2]) was 400 and the Specific activity (D-amidase [2]) was 220 U/mg.
`NC(=O)[C@H](N)Cc1ccccc1` [D-Phe-NH2] was tested, and the “Rel. activity with respect to D and L” value (D-amidase [2]) was 4.6, the “Activity with respect to Tle-NH2” value (D-amidase [2]) was 890 and the Specific activity (D-amidase [2]) was 500 U/mg.
`N[C@H](Cc1ccccc1)C(=O)O` [D-Phe] showed an enantioselectivity (D-amidase [1]; range from 40 to 50% conversion, partly purified enzyme after the 1st chromatography step) of about 55%.
In the case of `NC(=O)[C@@H]1CCCN1` [D-Pro-NH2, prolinamide], the “Rel. activity with respect to D and L” value (D-amidase [2]) is reported as 1, the “Activity with respect to Tle-NH2” value (D-amidase [2]) is reported as 24 and the Specific activity (D-amidase [2]) is reported as 12 U/mg.
In the case of `CC(C)[C@@H](N)C(N)=O` [D-Val-NH2], the “Rel. activity with respect to D and L” value (D-amidase [2]) is reported as 11, the “Activity with respect to Tle-NH2” value (D-amidase [2]) is reported as 13 and the Specific activity (D-amidase [2]) is reported as 6.9 U/mg.
With `NC=O` [Formamide] the “Activity with respect to Tle-NH2” value (D-amidase [3]; substrate 40 mM) was 0.13 and the Relative act. (D-amidase [3]; substrate 40 mM) was 0.061 U/mg.
